Laboratory results as given in paper PMC4323000 (Oncotarget, 2015).
pIC50: −log10 of the molar value. Entries after “also recorded” stand apart in the source; their conditions may differ. Where two headings read alike, the source gives them in different places.

How the values were obtained:
[1] = system: HEK-pcDNA3.1 xenografts; assay: Chemosensitization study, just-established ABCG2-negative tumors
Procedure: (§1) 4.10^6 HEK-pcDNA3.1 or HEK-ABCG2 cells were sub-cutaneously injected into one flank of each SCID mouse, in solution with 50% matrigel. After the apparition of most tumors, mice were randomly distributed into 4 groups of 20 animals (10 ABCG2 negative and 10 ABCG2-positive tumors). […] Two independent injections were carried out per mouse.
(§2) Treatments were intraperitoneally administered three times a week until mice sacrifice. […] Finally, mice were sacrificed when the tumor diameter reached 17 mm.
(§3) Growth models. Tumor growth curves were modeled with GraphPad© Software. Gaussian distribution models were obtained according to the equation Y = Amplitude*exp (−0.5*((X-Mean)/SD)^2). The amplitude was the height of the center of the distribution in Y units. Mean was the X value at the center of the distribution. SD was a measure of the width of the distribution, in the same units as X. Another model was applied for sum of two Gaussian distributions with Y = one + two (One = Amplitude 1*exp(−0.5*((X-Mean1)/SD1)^2) and Two = Amplitude 2*exp(−0.5*((X-Mean2)/SD2)^2)). Amplitudes were the heights of the center of the distribution in Y units. Means were the X values at the center of the two distributions. SDs were measures of the widths of the distributions, in the same units as X.
(§4) Paired t-test. The statistical test used was the paired t-test. It was applied for all data of growth tumor experiments and pharmacokinetics data.

[2] = Pharmacokinetic study of MBL-II-141, CPT-11 and SN-38 (blood, liver, brain; LC-MS/MS); conditions: for Mean of differences in Brain levels, compound alone versus CPT-11 + MBL-II-141 / Mean of differences in Blood levels, compound alone versus CPT-11 + MBL-II-141 / Mean of differences in Liver levels, compound alone versus CPT-11 + MBL-II-141: paired t-test over time; for Mean of differences in Brain levels, compound alone versus CPT-11 + MBL-II-141: P (two tailed): CPT-11 0.0416, MBL-II-141 0.1059; for Mean of differences in Blood levels, compound alone versus CPT-11 + MBL-II-141: P (two tailed): CPT-11 0.3616, SN-38 0.0299, MBL-II-141 0.1555; for Mean of differences in Liver levels, compound alone versus CPT-11 + MBL-II-141: P (two tailed): CPT-11 0.6878, SN-38 0.1727, MBL-II-141 0.1046
Procedure: In order to achieve possible cumulative effects, reiterated administrations (two or three) were carried out with a 4 h time interval between administrations. Blood samples were collected at either 1 h or 4 h after the last injection.
Total blood samples were collected using dried heparinized syringes, avoiding modification of samples. Blood and plasma were stored at −80°C. […] Tissues were crushed using a dried cold system.
Both assays were performed on a C18 column HypersilGold, (ThermoElectron), 3.0 μm, (100 mm × 2.1 mm i.d.). The mass spectrometry analysis was performed in positive ion mode with electrospray source. […] A volume of 50 μL of whole blood or tissue solution was introduced into a conic centrifuge and 50 μL of solution of the internal standard and 300 μL of cold acetonitrile were added. The sample was mixed and centrifuged for 10 min at 13000 g at 5°C. […] The residues were resuspended in 100 μL of mobile phase and 10 μL were injected into the HPLC device. […] When the concentration was over the upper standard concentration, a dilution of the sample was performed using blank whole blood or appropriate tissues. Peak area ratios of compound to the respective internal standard measured at each nominal concentration were used to construct weighted (1/concentration) least-square linear regression curves. […] Results in tissues were normalized to cellular protein content. Results in tissues were normalized to cellular protein content (C1600 Abott technology).

[3] = system: ABCG2; conditions: cited from earlier work
[4] = cited from earlier work
[5] = cited from earlier work; remark: listed apart in the source
[6] = system: ABCG2; conditions: cited from earlier work; remark: listed apart in the source
[7] = MBL-II-141 oral absorption study (force-feeding versus IP); type: in vivo, mouse
Procedure: The availability of MBL-II-141 was evaluated by force-feeding (n = 4), and compared to intraperitoneal injection (n = 4). CD1 mice were treated with 10 mg/kg of MBL-II-141. After 4 h of treatment, total blood was collected from animals treated with heparin. Samples were stored at −80°C until quantification.
Assay accuracy was in the range of 91–108%. […] Results in tissues were normalized to cellular protein content.

[8] = system: SCID mice; assay: MBL-II-141 tolerance assay; type: in vivo
[9] = Solubility for experimental formulation; type: physicochemical
Procedure: The experimental formulation of MBL-II-141 was determined according to its solubility properties.

[10] = system: ABCC1; conditions: mitoxantrone or calcein as substrates; cited from earlier work
[11] = system: HEK293 cells; conditions: at 100 μM; cited from earlier work
[12] = system: HEK293-ABCG2 cells; conditions: at 100 μM; cited from earlier work
[13] = system: HEK293-pcDNA3.1 cells; conditions: at 100 μM; cited from earlier work
[14] = system: HEK-ABCG2 xenografts; assay: Chemosensitization of just-established ABCG2-positive tumors
Procedure: as §1, §2, §3, §4

[15] = system: HEK293 ABCG2 xenografts; assay: Chemosensitization of well-established (8 mm) ABCG2-positive tumors; conditions: for slope of tumor growth: solvents 61 ± 3
Description: 1.10^6 HEK ABCG2 cells were sub-cutaneously injected into one flank of each SCID mouse, in solution with 30% matrigel. […] Each group contained 10 mice. The same protocol of treatment and follow-up were applied.
Tumor growth curves were modeled with GraphPad© Software. Gaussian distribution models were obtained according to the equation Y = Amplitude*exp (−0.5*((X-Mean)/SD)^2). The amplitude was the height of the center of the distribution in Y units. Mean was the X value at the center of the distribution. SD was a measure of the width of the distribution, in the same units as X. Another model was applied for sum of two Gaussian distributions with Y = one + two (One = Amplitude 1*exp(−0.5*((X-Mean1)/SD1)^2) and Two = Amplitude 2*exp(−0.5*((X-Mean2)/SD2)^2)). Amplitudes were the heights of the center of the distribution in Y units. Means were the X values at the center of the two distributions. SDs were measures of the widths of the distributions, in the same units as X.
The statistical test used was the paired t-test. It was applied for all data of growth tumor experiments and pharmacokinetics data.

[16] = system: ABCG2-overexpressing tumors; conditions: ref per compound in Table 2; cited from earlier work
[17] = set-up: method as in PMID 23150210; conditions: P.O.; ref [25]; cited from earlier work
[18] = CPT-11 20 mg/kg + MBL-II-141 10 mg/kg IP
[19] = read-out: In vitro Inhibition (IC50), substrate Mitoxantrone, ref [13],[21],[35],[45]–[48] (GF120918), [7] (Triclabendazole)
[20] = I.P., ref per compound in Table 2
[21] = read-out: In vitro Inhibition (IC50), substrate Hoechst 3342, ref [6],[24],[49] (Ko143), [40] (YHO-13177)
[22] = oral, ref per compound in Table 2
[23] = MBL-II-141 alone 10 mg/kg + PBS
[24] = combination MBL-II-141 10 mg/kg + CPT-11 20 mg/kg
[25] = MBL-II-141 10 mg/kg IP, SCID mice

CCc1c2c(nc3ccc(OC(=O)N4CCC(N5CCCCC5)CC4)cc13)-c1cc3c(c(=O)n1C2)COC(=O)[C@]3(O)CC [CPT-11, irinotecan]
effect on growth of ABCG2-negative cells (tumors) ([1]; CPT-11 alone 20 mg/kg): completely blocked | survival of mice bearing ABCG2-negative tumors ([1]; CPT-11 alone 20 mg/kg): 100% | increase of CPT-11 brain levels in the presence of MBL-II-141 [2, 18]: approximately 2 fold | fraction lost from the blood at 4 h ([2]; CPT-11 20 mg/kg IP): 90% | Mean of differences in Brain levels, compound alone versus CPT-11 + MBL-II-141 [2]: -2.085 | Mean of differences in Blood levels, compound alone versus CPT-11 + MBL-II-141 [2]: -220.0 | Mean of differences in Liver levels, compound alone versus CPT-11 + MBL-II-141 [2]: -28.86

CSc1nc2cc(Cl)c(Oc3cccc(Cl)c3Cl)cc2[nH]1 [Triclabendazole]
pIC50 [3, 19]: ~5.00 | In vivo Toxicity, Acute [4, 20]: > 100 mg/kg I.P. | In vivo Impact on Pharmacokinetics ([5]; of Nitrofurantoin, ref [7]): Nitrofurantoin: Yes

CCc1c2c(nc3ccc(O)cc13)-c1cc3c(c(=O)n1C2)COC(=O)[C@]3(O)CC [SN-38]
SN-38 plasma levels lower than CPT-11 ([5]; ICR mice, 1 h after the injection): 27 fold | Liver/Plasma ratio, fold-change induced by the combination treatment ([2]; 30 min): 0.9 fold-change | Liver/Plasma ratio, fold-change induced by the combination treatment ([2]; 60 min): 0.6 fold-change | Liver/Plasma ratio, fold-change induced by the combination treatment ([2]; 120 min): 1.1 fold-change | Liver/Plasma ratio, fold-change induced by the combination treatment ([2]; 240 min): 1.0 fold-change | Liver/Plasma ratio, fold-change induced by the combination treatment ([2]; 480 min): 1.0 fold-change | change of SN-38 blood levels in the presence of MBL-II-141 [2, 18]: increased; also recorded: strongly increased | difference between CPT-11 and SN-38 levels (SN-38 lower) ([2]; SCID mice): 19 fold | time until which detected in blood ([2]; SN-38 after CPT-11 20 mg/kg IP): 6 h | SN-38 levels in the brain ([2]; after CPT-11 20 mg/kg IP, with or without MBL-II-141): below the limits of quantification; also recorded: under the limit of detection | Mean of differences in Blood levels, compound alone versus CPT-11 + MBL-II-141 [2]: -109.6 | Mean of differences in Liver levels, compound alone versus CPT-11 + MBL-II-141 [2]: -12.65

COc1ccc2c3c([nH]c2c1)[C@H](CC(C)C)N1C(=O)[C@H](CCC(=O)OC(C)(C)C)NC(=O)[C@@H]1C3 [Ko143]
In vitro ABCG2 Specificity ([6]; ref per compound in Table 2): Yes | pIC50 [3, 21]: […] | pIC50 ([3]; read-out: In vitro Inhibition (IC50), substrate Pheophorbide A, ref [6],[24],[49]): […] | In vivo Toxicity, Acute [4, 20]: > 10 mg/kg I.P. | In vivo Toxicity, Acute [4, 22]: > 50 mg/kg oral | increase of topotecan plasma levels (oral availability) ([5]; ABCB1(−/−) mice): 4 to 6 fold | In vivo Impact on Pharmacokinetics ([5]; of Topotecan, ref [13],[21],[35],[45]–[48] (GF120918), [6],[24],[49] (Ko143)): Topotecan: Yes

COc1ccc2[nH]cc(CCNC(=O)c3cc(=O)c4c(OCc5ccc(Br)cc5)cccc4o3)c2c1 [MBL-II-141, 5-(4-bromobenzyloxy)-2-(2-(5-methoxyindolyl)ethyl-1-carbonyl)-4H-chromen-4-one]
blood level at 4 h under force-feeding in comparison to IP route (lower) ([7]; 10 mg/kg, difference not significant): approximately 2 fold | In vivo Toxicity, Acute ([7]; oral (force-feeding), mice): > 10 mg/kg oral | acute toxicity in pilot study ([8]; 10 mg/kg per mouse): no acute toxicity | finding in the peritoneal cavity ([8]; 50 mg/kg 3 times a week for 1 month): slight deposit | macroscopic analysis of organs (brain, heart, lungs, kidneys, liver and spleen) ([8]; 10, 30 or 50 mg/kg with CPT-11 20 mg/kg): no apparent lesions | In vivo Toxicity, Acute ([8]; I.P., mice): > 50 mg/kg I.P. | behavior (physical activity, appearance) ([8]; IP 10, 30 or 50 mg/kg in combination with CPT-11 20 mg/kg): did not show any modification in behavior | tolerance ([8]; at 50 mg/kg, preliminary data): well tolerated | complete blood count proportion ([8]; regardless of the administered dose of MBL-II-141 (10, 30, 50 mg/kg)): unchanged | safety on reiterated administrations ([8]; reiterated administrations): without any associated animal death or loss of weight | maximal solubility in DMSO [9]: 250 mg/mL | effect on ABCC1-mediated transport [10]: without any effect | cell death of HEK293 cells [11]: less than 25% | cell survival [12]: 60% | cell survival [13]: 75% | In vitro ABCG2 Specificity ([6]; MBL-II-141): Yes | type of ABCG2 inhibition towards mitoxantrone [3]: non-competitive | pIC50 ([3]; read-out: IC50, inhibition of ABCG2 (mitoxantrone efflux), substrate mitoxantrone): 6.96 | Mean of differences between tumor growth curves, vehicles versus MBL-II-141 alone ([14]; HEK-ABCG2, paired t-test P (two tailed) 0.015, 95% CI 16.93 to 138.1): 77.51 | ABCG2-positive tumors whose growth was completely blocked ([14]; MBL-II-141 10 mg/kg + CPT-11 20 mg/kg IP three times a week, freshly implanted tumors, SCID mice): 90% | survival rate of mice bearing ABCG2-positive tumors ([14]; MBL-II-141 10 mg/kg + CPT-11 20 mg/kg, even 40 days after end of treatment): 90% | inhibitory effect on growth of ABCG2-positive tumors [14, 23]: not observed | In vivo Impact on Tumor growth ([14]; with CPT-11, ABCG2-positive xenografts): Yes | Mean of differences between tumor growth curves, vehicles versus MBL-II-141 alone ([1]; HEK-pcDNA3.1, paired t-test P (two tailed) 0.0006, 95% CI 171.0 to 512.9): 342 | effect on growth of ABCG2-negative tumors [1, 23]: slight inhibitory effect | mice survival [15, 24]: markedly increased | time at which tumors reached maximal size versus CPT-11 alone [15, 24]: about two weeks later | slope of tumor growth [15, 24]: 41 ± 1 mm^3/day | Mean of differences between tumor growth curves, Solvents versus MBL-II-141 ([15]; paired t-test P (two tailed) < 0.0001, 95% CI 54.71 to 135.0): 94.84 | Mean of differences between tumor growth curves, CPT-11 versus MBL-II-141 + CPT-11 ([15]; paired t-test P (two tailed) < 0.0001, 95% CI 162.2 to 329.4): 245.8 | Mean of differences between tumor growth curves, Solvents versus MBL-II-141 + CPT-11 ([15]; paired t-test P (two tailed) < 0.0001, 95% CI 177.3 to 460.0): 318.6 | Mean of differences between tumor growth curves, MBL-II-141 versus MBL-II-141 + CPT-11 ([15]; paired t-test P (two tailed) < 0.0001, 95% CI 240.1 to 562.7): 401.4 | slope of tumor growth ([15]; single agent (MBL-II-141 10 mg/kg or CPT-11 20 mg/kg) three times a week): 68 ± 3 mm^3/day | blood level after the third injection versus one or two injection(s) ([2]; 10 mg/kg IP, injections separated by 4 h, blood 1 h or 4 h after last injection): slight increase | Brain/Plasma ratio, fold-change induced by the combination treatment ([2]; 30 min): 1.1 fold-change | Liver/Plasma ratio, fold-change induced by the combination treatment ([2]; 30 min): 2.5 fold-change | Brain/Plasma ratio, fold-change induced by the combination treatment ([2]; 60 min): 0.3 fold-change | Liver/Plasma ratio, fold-change induced by the combination treatment ([2]; 60 min): 0.8 fold-change | Brain/Plasma ratio, fold-change induced by the combination treatment ([2]; 120 min): 0.4 fold-change | Liver/Plasma ratio, fold-change induced by the combination treatment ([2]; 120 min): 1.1 fold-change | Brain/Plasma ratio, fold-change induced by the combination treatment ([2]; 240 min): 3.0 fold-change | Liver/Plasma ratio, fold-change induced by the combination treatment ([2]; 240 min): 3.0 fold-change | level in total blood at 6 h [2, 25]: below the detection limit | time of highest level in total blood [2, 25]: 0.5 h | distribution into the brain ([2]; MBL-II-141 10 mg/kg IP, SCID mice, 10 mg/kg): low, but still detectable | In vivo Impact on Pharmacokinetics ([2]; of CPT-11, SCID mice): CPT-11: Yes | Mean of differences in Brain levels, compound alone versus CPT-11 + MBL-II-141 [2]: 38.53 | Mean of differences in Blood levels, compound alone versus CPT-11 + MBL-II-141 [2]: 122.0 | Mean of differences in Liver levels, compound alone versus CPT-11 + MBL-II-141 [2]: -39.78

COc1cc2c(cc1OC)CN(CCc1ccc(NC(=O)c3cccc4c(=O)c5cccc(OC)c5[nH]c34)cc1)CC2 [GF120918]
In vitro ABCG2 Specificity ([6]; ref per compound in Table 2): No | In vivo Impact on Tumor growth [16]: Yes | pIC50 [3, 19]: 6.51

CNC(=O)c1cc(Oc2ccc(NC(=O)Nc3ccc(Cl)c(C(F)(F)F)c3)cc2)ccn1 [Sorafenib]
In vitro ABCG2 Specificity ([6]; ref per compound in Table 2): No | In vivo Toxicity, Chronic [17]: > 25 mg/kg P.O. | In vivo Impact on Tumor growth [16]: Yes | In vivo Toxicity, Acute [4, 22]: > 25 mg/kg oral

COc1ccc(/C(C#N)=C/c2ccc(N3CCC(O)CC3)s2)cc1OC [YHO-13177]
In vitro ABCG2 Specificity ([6]; ref per compound in Table 2): Yes | In vivo Impact on Tumor growth [16]: Yes | pIC50 [3, 21]: ~6.52 | In vivo Toxicity, Acute ([4]; I.V., ref [13],[21],[35],[45]–[48] (GF120918), [40] (YHO-13177)): > 30 mg/kg I.V. | In vivo Toxicity, Acute [4, 22]: > 200 mg/kg oral
